# Experimental data from patent US7285621B2, “Multiple branch peptide construction” (Ambrilia Biopharma, priority 1999, dated 2007).
# Experiments:
# Format in all cases: cell-based
# [1] = system: HIV-1NL4-3; assay: HIV-1NL4-3 infection of C8166 cells (syncytia formation, p24 ELISA); set-up: key to Syncytium formation: ++: number of syncytia present in the well were similar to that in control untreated well (35 to 40 syncitia per well); −: total absence of syncitia in the well; ±: presence of 1 to 3 syncitia in the well; conditions: for Syncytium formation / P24: C8166 cells; for HIV inhibition characteristics: Table 3, C8166 cells
# Description: C8188 cells were infected with HIV to establish a baseline control. Similar C8188 cells were pretreated the invented MBPCs and then subjected to HIV to determine inhibition rates. The results are illustrated in FIGS. 1A, 1B and 2.
# Samples of 3×10^5 C8166 cells were placed in 96-well plates in a volume of 100 μl of culture medium containing various concentrations of peptide. After a one hour treatment at 37° C., 100 μl of viral solution of HIV-1NL4-3 were added. The cells were exposed to the virus of one hour at 37° C. at a multiplicity of infection of 1,000 TCID50 per ml. After through washing, cells were replaced in 1 ml of R10 with the treatment in 24-well plates and cultured in a 37° C. incubator. C8166 culture medium was replaced at day-4 post-infection. During this assay, treatment with peptide was permanent (before, during and after infection). Assays on C8166 cells have been performed at least twice and in duplicate. Toxicity was evaluated by daily cell count and trypan-blue exclusion assay. Infection of C8166 T-Cells with HIV-1NL4-3 was assessed by virus-induced cytopathic effect (syncytia formation) and by quantification of p24 viral protein in the culture supernatants. Measurements of HIV-1 p24^gag concentrations in the culture supernatants were achieved by ELISA, with a detection cut-off of 5 pg/ml (p24 HIV kit, NEN Dupont, Belgium; Quanti-Kine software, RILAB, Genova, Italy).
# [2] = system: HIV-1NL4-3; assay: HIV-1NL4-3 infection of human PBLs/PBMCs (p24 ELISA); conditions: 0.1 μM, FIG. 2
# Description: Human peripheral blood lymphocytes (PBLs) obtained from healthy HIV-seronegative donor (Etablissement Francais du Sang, Marseille, France) were isolated by ficoll-Hypaque gradient centrifugation. Cells were cultured in R10 medium supplemented with 20 units/ml of interleukin-2 (IL-2, Proleukin, Chiron, The Netherlands). R10 medium consists of RPMI 1640 supplemented with 2 mM ultraglutamine (BioWhittaker, Vervires, Belgium), penicillin (100 units/ml), streptomycin (100 μg/ml), and 10% heat-inactivated fetal calf serum (BioWhittaker). Cells were first stimulated with phytohemaggiutinin (20 μg/ml)-supplemented R10 (PHA P, DIFCO, Detroit, Mich., USA) for three days. Then, the medium was replaced with R10 supplemented with IL2 (20 units/ml), and subsequently cultures and experiments were carried out in this medium in a 37° C. humidified incubator with 5% CO2.
# Samples of 10^6 human PBLs were placed in 96-well plates in 100 μl of R10 containing various concentrations of peptide. After one hour treatment of 37° C., 100 μl of viral solution of HIV-1NL4-3 were added. The cells were exposed to the virus for one hour at 37° C. flushed with 5% CO2. The PBL culture medium was replaced every 3-4 days. The cell viability was assessed by cell counts and trypan-blue exclusion assay. The viral production in the culture supernatant was quantified by p24 ELISA test, as described supra. […]
# [3] = system: HIV-1 and HIV-2 viruses; assay: In vitro inhibition of HIV-induced syncytium formation and infection of human lymphocytes; conditions: HIV-1 and HIV-2 laboratory strains and clinical isolates
Substance,Syncytium formation ([1]; peptide 1 μm),Syncytium formation ([1]; peptide 10 μm),other results
(QGYSPL)2-K-βA [Peptide 5],± (presence of 1 to 3 syncitia in the well),−,
(RQG)2-K-βA [Peptide 4],± (presence of 1 to 3 syncitia in the well),−,
(RQGY)2-K-βA [Peptide 3],± (presence of 1 to 3 syncitia in the well),± (presence of 1 to 3 syncitia in the well),
(RQGY)8-(K)4-(K)2-K-βA-OH [(RQGY)8-K4-K2-K-βA],,,inhibition of syncytium formation and p24 production of HIV-infected cells ([1]; 5 μM): 100%
(RQGYS)2-K-βA-OH [Peptide 2],−,−,HIV inhibition characteristics [1]: superior HIV inhibition characteristics; P24 ([1]; peptide 1 μm): 0 pg/mL; P24 ([1]; peptide 10 μm): 0 pg/mL
(RQGYSP)2-K-βA [Peptide 1],,−,
(RQGYSPL)2-K-βA [Peptide 11],−,−,"viral activity relative to controls ([1]; 0.1 micro-molar (μm), FIG. 1, C8166 cells): one tenth that seen in controls; viral activity ([1]; 5 μm, FIG. 1, C8166 cells): virtually no activity; viral activity ([1]; 10 μm, FIG. 1, C8166 cells): no viral activity; inhibition of syncytium formation and p24 production ([1]; HIV-1NL403 infected C8166 cells, FIG. 1): marked inhibition; HIV inhibition characteristics [1]: superior HIV inhibition characteristics; P24 ([1]; peptide 1 μm): 0 pg/mL; P24 ([1]; peptide 10 μm): 0 pg/mL; inhibition of HIV-1NL403 infected PBMCs [2]: 100%"
(SPL)2-K-βA [Peptide 8],++ (number of syncytia present in the well were similar to that in control untreated well (35 to 40 syncitia per well)),± (presence of 1 to 3 syncitia in the well),
(YSPL)2-K-βA [Peptide 7],± (presence of 1 to 3 syncitia in the well),± (presence of 1 to 3 syncitia in the well),
RQGYSPL [monomeric RQGYSPL],,,"antiviral properties (HIV-induced syncytium formation, infection of human lymphocytes) [3]: inactive"
